Data as given in PubChem BioAssay AID1963851 (Molecular Pharmacology Branch, DTP, NCI, 2024).
“And” between values parts separate entries of the source, which are not always exact repeats. Identical values can stand only once.

Test system: 188146-221-R-J1-PDC complex spheroid viability
Test: Anticancer human tumor 188146-221-R-J1-PDC patient-derived colon adenocarcinoma cell line growth inhibition [POLQ]
Conditions: for viability, T/C: stronger effect = lower value
Method: Multicellular complex tumor spheroid response to Polymerase (POL) inhibitors (novobiocin, ART-558, RP6685) in combination with a variety of drugs and investigational agents in selected tumor cell lines
The POL inhibitors (novobiocin, ART-558, and RP6685) were evaluated both individually and in combination with standard of care and investigational anticancer small molecules within a complex spheroid model of solid tumors. . Complex spheroids include a stromal component modeled by human endothelial cells (HUVEC) and fibroblasts modeled by human mesenchymal stem cells (MSCs). The concentration ranges selected for each drug and investigational agent were based upon clinically achievable concentrations if the clinical Cmax of the agent was known.
Compounds. The drugs and investigational agents: novobiocin (NSC847541), ART-558 (NSC835418), RP-6685 (NSC848927), peposertib (NSC802822), ceralasertib (NSC780249), elimusertib (NSC800525), camonsertib (NSC841442), AZD-1390 (NSC803789), olaparib (NSC753686), talazoparib (NSC767125), rucaparib (NSC756644), sotorasib (NSC818433), MRTX-1133 (NSC836407), SN-38 (NSC673596), topotecan (NSC609699), epotoside (NSC141540), doxorubicin (NSC123127), gemcitabine (NSC613327), 5-fluorouracil (NSC19893), paclitaxel (NSC125973), vemurafenib (NSC761431), MSA-2 (NSC828583), SN-011 (NSC837082), adavosertib (NSC754352), prexasertib (NSC758257), carboplatin (NSC241240) and oxaliplatin (NSC266046), were obtained from the National Cancer Institute (NCI) Developmental Therapeutics Program Chemical Repository (21). The FDA-approved anticancer drug set is available from the Developmental Therapeutics Program at https://dtp.cancer.gov/organization/dscb/obtaining/. […] The stock solutions were prepared in dimethyl sulfoxide (DMSO, Sigma-Aldrich, St. Louis, MO, cat. D2650), except for the platinum compounds which were prepared in saline (Quality Biological, Gaithersburg, MD, cat. 114-055-101), at 800-fold the tested concentration and stored at -70 degrees C prior to their use. All drugs and investigational agents were tested over a range starting from a high concentration at or near the clinical Cmax and decreasing in half-log increments. If the clinical Cmax for an agent had not been determined, the highest concentration tested was 10 microM, except for SN-38, which was tested at a high concentration of 1 microM.
Cell Culture. All cells were maintained in an incubator at 37 degrees C and 5% CO2 with 95% humidity. The PDC lines were cultured according to standard operating procedures established by the NCI PDMR (https://pdmr.cancer.gov). Table 3 of the manuscript, lists the cell lines along with the number of the three cell types plated to form the mct-spheroids and media for tumor cell growth. After thawing, all PDC lines, except 997537-175-T-J1-PDC and 415267-285-R-J2-PDC, were cultured in Matrigel-coated flasks prepared with a working solution of 1X Ham's F-12 nutrient mix, without supplementation (Thermo Fisher Scientific, cat. 11765054), 100 U/mL penicillin-streptomycin (Thermo Fisher Scientific, cat. 15140122), and 2.5% Matrigel (Corning Inc., Corning, NY, cat. 354248) for the first three passages. The two PDC lines 997537-175-T-J1-PDC and 415267-285-R-J2-PDC were cultured on uncoated flasks. The 857933-349-R-J2-PDC line was cultured in 6C/Colon 1B media containing advanced DMEM/F-12 (Thermo Fisher Scientific, cat. 12634028), 10 mM HEPES (Thermo Fisher Scientific, cat. 15630080), 1X GlutaMAX supplement (Thermo Fisher Scientific, cat. 35050061), 0.1 mg/mL primocin (InvivoGen, San Diego, CA, cat. ant-pm-2), 10% defined fetal bovine serum, heat inactivated (HyClone Laboratories Inc., Logan, UT, cat. SH30070.03HI), 50% L-WRN conditioned media (ATCC, cat. CRL-3276), 1.25 mM N-Acetyl-L-cysteine (Sigma-Aldrich, cat. A9165), 10 mM nicotinamide (Sigma-Aldrich, cat. N0636), 1X B-27 supplement (Thermo Fisher Scientific, cat. 17504044), 1X N-2 supplement (Thermo Fisher Scientific, cat. […]
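Note: spheroids exposed to compounds for seven days.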
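Throughout, for viability, T/C: 100% = DMSO vehicle control viability.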

## COc1cc2cc(C(=O)CCC(=O)O)sc2cc1OC
Compound 0.0316 µM
  viability, T/C: 100% and 119% and 108%
Compound 0.1 µM
  viability, T/C: 84.6% and 105% (2×)
Compound 0.316 µM
  viability, T/C: 108% and 88.4% and 95%
Compound 1 µM
  viability, T/C: 93% and 103% and 104%
Compound 3.16 µM
  viability, T/C: 100% and 109% and 108%
Compound 10 µM
  viability, T/C: 111% and 110% and 95.3%
Curve of compound
  IC50: > 10000 nM

## COc1cccc(OCCCN)c1-c1cc(Nc2cnc(C#N)cn2)n[nH]1 + COC1C(OC(N)=O)C(O)C(Oc2ccc3c(O)c(NC(=O)c4ccc(O)c(CC=C(C)C)c4)c(=O)oc3c2C)OC1(C)C
Curve of first compound, second compound 0.0316 µM
  IC50: 28.7 nM
Curve of first compound, second compound 0.1 µM
  IC50: 35 nM
Curve of first compound, second compound 0.316 µM
  IC50: 39.4 nM
Curve of first compound, second compound 1 µM
  IC50: 30.5 nM
Curve of first compound, second compound 3.16 µM
  IC50: 27.6 nM
Curve of first compound, second compound 10 µM
  IC50: 22.2 nM
Second compound 0.0316 µM, first compound 0.00316 µM
  viability, T/C: 105%
Second compound 0.0316 µM, first compound 0.01 µM
  viability, T/C: 77.3%
Second compound 0.0316 µM, first compound 0.0316 µM
  viability, T/C: 51.3%
Second compound 0.0316 µM, first compound 0.1 µM
  viability, T/C: 20.1%
Second compound 0.0316 µM, first compound 0.316 µM
  viability, T/C: 13%
Second compound 0.0316 µM, first compound 1 µM
  viability, T/C: 10.6%
Second compound 0.1 µM, first compound 0.00316 µM
  viability, T/C: 107%
Second compound 0.1 µM, first compound 0.01 µM
  viability, T/C: 96.6%
Second compound 0.1 µM, first compound 0.0316 µM
  viability, T/C: 51.9%
Second compound 0.1 µM, first compound 0.1 µM
  viability, T/C: 20.7%
Second compound 0.1 µM, first compound 0.316 µM
  viability, T/C: 12.7%
Second compound 0.1 µM, first compound 1 µM
  viability, T/C: 9.49%
Second compound 0.316 µM, first compound 0.00316 µM
  viability, T/C: 97%
Second compound 0.316 µM, first compound 0.01 µM
  viability, T/C: 80.6%
Second compound 0.316 µM, first compound 0.0316 µM
  viability, T/C: 60.2%
Second compound 0.316 µM, first compound 0.1 µM
  viability, T/C: 18%
Second compound 0.316 µM, first compound 0.316 µM
  viability, T/C: 10.6%
Second compound 0.316 µM, first compound 1 µM
  viability, T/C: 9.85%
Second compound 1 µM, first compound 0.00316 µM
  viability, T/C: 106%
Second compound 1 µM, first compound 0.01 µM
  viability, T/C: 90.1%
Second compound 1 µM, first compound 0.0316 µM
  viability, T/C: 47.6%
Second compound 1 µM, first compound 0.1 µM
  viability, T/C: 21%
Second compound 1 µM, first compound 0.316 µM
  viability, T/C: 12%
Second compound 1 µM, first compound 1 µM
  viability, T/C: 9.09%
Second compound 3.16 µM, first compound 0.00316 µM
  viability, T/C: 89.5%
Second compound 3.16 µM, first compound 0.01 µM
  viability, T/C: 79.8%
Second compound 3.16 µM, first compound 0.0316 µM
  viability, T/C: 45.8%
Second compound 3.16 µM, first compound 0.1 µM
  viability, T/C: 18.4%
Second compound 3.16 µM, first compound 0.316 µM
  viability, T/C: 12.5%
Second compound 3.16 µM, first compound 1 µM
  viability, T/C: 9.13%
Second compound 10 µM, first compound 0.00316 µM
  viability, T/C: 103%
Second compound 10 µM, first compound 0.01 µM
  viability, T/C: 83.1%
Second compound 10 µM, first compound 0.0316 µM
  viability, T/C: 35.1%
Second compound 10 µM, first compound 0.1 µM
  viability, T/C: 15.2%
Second compound 10 µM, first compound 0.316 µM
  viability, T/C: 11.4%
Second compound 10 µM, first compound 1 µM
  viability, T/C: 9.97%

## CCCS(=O)(=O)Nc1ccc(F)c(C(=O)c2c[nH]c3ncc(-c4ccc(Cl)cc4)cc23)c1F
Compound 0.0316 µM
  viability, T/C: 104% and 98.2% and 96.2%
Compound 0.1 µM
  viability, T/C: 108% and 92.2% and 102%
Compound 0.316 µM
  viability, T/C: 111% and 95.7% and 82.7%
Compound 1 µM
  viability, T/C: 90.1% and 79.7% and 80.1%
Compound 3.16 µM
  viability, T/C: 83.9% and 85.2% and 81.8%
Compound 10 µM
  viability, T/C: 40.6% and 36.2% and 25.4%
Curve of compound
  IC50: 7790 nM and 7060 nM and 5830 nM

## COc1cccc2c1C(=O)c1c(O)c3c(c(O)c1C2=O)CC(O)(C(=O)CO)CC3OC1CC(N)C(O)C(C)O1 (stereo not given)
Compound 0.0316 µM
  viability, T/C: 78% and 71.8% and 78.2%
Compound 0.1 µM
  viability, T/C: 60.5% and 38.2% and 54.6%
Compound 0.316 µM
  viability, T/C: 32.8% and 29.6% and 32.9%
Compound 1 µM
  viability, T/C: 8.2% and 10% and 11.1%
Compound 3.16 µM
  viability, T/C: 1.38% and 0.34% and 0.33%
Compound 10 µM
  viability, T/C: 0.57% and 0.47% and 0.49%
Curve of compound
  IC50: 155 nM and 73.6 nM and 132 nM

## CC1COCCN1c1cc(C2(S(C)(=N)=O)CC2)nc(-c2ccnc3[nH]ccc23)n1 (stereo not given)
Compound 0.0316 µM
  viability, T/C: 100% and 105% and 99.8%
Compound 0.1 µM
  viability, T/C: 95.1% and 99.5% and 101%
Compound 0.316 µM
  viability, T/C: 89.3% and 114% and 98%
Compound 1 µM
  viability, T/C: 94.8% and 91.6% and 89.8%
Compound 3.16 µM
  viability, T/C: 68.1% and 61.6% and 60.5%
Compound 10 µM
  viability, T/C: 23.7% and 27.7% and 21.9%
Curve of compound
  IC50: 5050 nM and 4620 nM and 4330 nM
